Source: patent publication US20060167271A1, “Purified compounds that inhibit intracellular alphax4/paxillin binding” (priority 2002, published 2006)
pIC50: −log10 of the molar value. Like-named read-outs stand apart in the source and are kept apart here. Blank lines part the entries; values can stand above or below the compound they belong to.

Columns and labels:
[1] = target: T1, Paxillin/α4 binding (immobilized His-tagged α4 tail, soluble recombinant Paxillin) (Homo sapiens, UniProt P13612+P49023); test: Immobilized Paxillin/α4 binding assay (ELISA); conditions: for pIC50: read-out: IC50 of Paxillin/α4 binding inhibition
T1 construct: The design and production of recombinant cytoplasmic α4 tail polypeptide have been described; made in house; host or cells: E. coli BL21(DE3)pLysS for the α4 tail
Description: FIG. 4 is a schematic representation of the high throughput screening by ELIZA used herein in which the α4 tail is coated onto a Ni-NTA microtiter plate (a), Paxillin is permitted to bind to α4 (b), first antibody is added (anti-Paxillin) (c), second antibody is added (HRP-conjugated, anti-mouse) (d), and Pax/α4 binding efficiency is measured by detection at 490 nm (e). For binding inhibition, compounds were added during Paxillin incubation (step b). […], zero % inhibition was measured from incubation with Paxillin and no compound.
Initially, roughly 40,000 compounds were screened in approximately 2000 wells (most as a mixture of 10 compounds, 50 μM total concentration) in an ELISA assay using an immobilized His-tagged α4 tail [Pfaff et al. (1998) J. Biol. Chem. 273, 6104-6109] and examining the binding inhibition of soluble recombinant Paxillin [Salgia et al. (1995) J. Biol. Chem. 270, 5039-5047] (FIG. 3).
Paxillin/α4 binding assays were performed as follows. Ni-NTA HisSorb microtiter strips (Qiagen) were coated overnight at 4° C. with purified α4 tail integrin (5 μg/ml, 100 μl per well) in PBS buffer (8 mM Na2HPO4, 1.5 mM KH2PO4, 135 mM NaCl, 2.5 mM KCl [pH 7.4]) supplemented with heat-denatured BSA (0.2%). The plates were washed three times with PBS buffer to remove unbound integrin, blocked with 150 μl of heat-denatured 1% BSA (denatured at 85° C. for 30 minutes and supplemented with 0.05% sodium azide) for 1 hour at room temperature, and washed again three times with PBS buffer.
Purified Paxillin in binding buffer (10% DMSO, 0.2% BSA in PBS buffer) was added to the wells at a concentration of 5 μg/ml in the presence or absence of compounds (1 mM DMSO stock solutions). […] As a control, blocked wells without integrin were examined for binding. After 1 hour at room temperature, the wells were washed three times with PBS buffer, incubated with first antibody (12CA5 ascites, 1/10000 in PBS plus 1% BSA, 100 μL) for 1 hour at room temperature, then with second antibody (100 μl HRP-conjugated anti-mouse [Biosource] in PBS buffer plus 1% BSA) for 1 hour at room temperature. Each well was treated with 50 μl of substrate solution (4 mg o-phenylenediamine, 4 μl of 30% H2O2, 80 mM citrate phosphate [pH 5]) and stopped after 10 minutes at room temperature with 50 μl H2SO4 (2 N). Binding was quantitated on a vmax kinetic microplate reader (Molecular Devices) at 490 nm. Zero % inhibition control was measured with Paxillin and no compound, and 100% inhibition control (background) was measured with no Paxillin and no compound. Each well was duplicated and percent inhibition was averaged.

[2] = target: T2, binding of Paxillin to the α4 tail protein (Homo sapiens, UniProt P13612+P49023); test: Integrin tail affinity chromatography binding study
T2 construct: The design and production of recombinant cytoplasmic α4 tail polypeptide have been described; made in house; host or cells: E. coli BL21(DE3)pLysS for the α4 tail
Description: FIG. 6 in two parts as 6A and 6B includes results of an affinity chromatography binding study (6A) and scanning densitometry results shown in graphical form for the bound Paxillin (6B). In 6A, recombinant HA-tagged GST-Paxillin (100 nM) was added to Ni^2+-charged resin loaded with α4 tail protein in the absence (lane a) or presence of compound 11-A7B7C7 (lane b, 5 μM; lane c, 25 μM; lane d, 100 μM) or compound 11-A6B6C6 (lane e, 25 μM). Bound protein was collected and separated by SDS-PAGE under reducing conditions, transferred to a nitrocellulose membrane, and stained with HA-tag-specific antibody, 12CA5. In 6B, bound Paxillin was quantified by scanning densitometry of those immunoblots using the NIH Image program. The depicted results are representative from two studies.
In order to confirm the effectiveness and selectivity of Compound 11-A7B7C7 at inhibiting Paxillin/α4 binding, a series of binding studies was conducted using affinity chromatography techniques [Liu S et al. (1999) Nature 402, 676-681; and Pfaff et al. (1998) J. Biol. Chem. 273, 6104-6109]. […] Bound protein was collected and separated by electrophoresis and analyzed by immunoblotting.
Integrin tail affinity chromatography was performed as described [Rose (2001) J. Immunol. 167, 2824-2830]. […]

[3] = tested on: integrin α4β1-mediated migration of Jurkat T cells; test: Cell migration assay (modified Boyden chamber); type: cell-based; conditions: Homo sapiens
Description: Cell migration was assayed in a modified Boyden chamber assay system as previously described [Rose et al. (2001) J. Immunol. 167, 2824-2830]. […] 167, 2824-2830]. Transwells (Costar, Corning) polycarbonate membranes containing 3.0 μm pores were coated with 5 μg/ml recombinant soluble VCAM-1. Membranes were blocked with 2% BSA in PBS for 30 minutes at room temperature. 2.0×10^5 cells in RPMI-1640 containing the indicated concentration of the compound and a final concentration of 0.1% DMSO were added to the top chamber. SDF-1α (R&D Systems) at a final concentration of 15 ng/ml was added to the bottom chamber. Cells were permitted to migrate for 4 hours at 37° C. Cells in the bottom chamber were enumerated with a hemocytometer, and data are expressed as percent inhibition of migration. Depicted are the mean and range of duplicate determinations from one of two studies with similar results.
The Jurkat E6-1 T leukemic cell line was purchased from American Type Culture Collection (ATCC), Rockville, Md. and cultured in RPMI-1640 (Biowhitaker Inc, Walkersville, Md.) supplemented with 10% FCS (Biowhitaker Inc), 1% glutamine, 50 units/ml penicillin, and 50 μg/ml streptomycin (Sigma Chemical, St Louis, Mo.).
Cell migration was assayed in a modified Boyden chamber assay system. […]

[4] = read-out: Inhibition of Pax/α4 binding (% at 1 μM)

T1 sequence (P13612 1002-1032 limits assumed): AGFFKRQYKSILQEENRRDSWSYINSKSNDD
T1 sequence (P49023 1-557 isoform P49023-2): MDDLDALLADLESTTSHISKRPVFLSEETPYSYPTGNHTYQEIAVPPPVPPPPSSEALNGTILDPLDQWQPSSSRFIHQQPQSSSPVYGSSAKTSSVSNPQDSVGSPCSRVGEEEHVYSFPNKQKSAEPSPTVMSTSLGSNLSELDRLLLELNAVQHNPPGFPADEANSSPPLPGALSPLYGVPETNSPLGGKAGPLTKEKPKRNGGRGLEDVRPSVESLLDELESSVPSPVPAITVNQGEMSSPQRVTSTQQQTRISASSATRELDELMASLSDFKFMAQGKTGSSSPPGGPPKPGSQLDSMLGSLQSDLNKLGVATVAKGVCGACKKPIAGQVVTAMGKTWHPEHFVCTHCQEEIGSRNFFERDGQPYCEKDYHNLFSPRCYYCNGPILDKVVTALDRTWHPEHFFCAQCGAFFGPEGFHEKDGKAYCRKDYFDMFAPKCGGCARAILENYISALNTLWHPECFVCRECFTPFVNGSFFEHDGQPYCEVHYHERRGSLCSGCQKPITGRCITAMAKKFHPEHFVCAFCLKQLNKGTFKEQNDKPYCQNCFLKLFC
T2 sequence (P13612 1002-1032 limits assumed): as the sequence (P13612 1002-1032 limits assumed) above
T2 sequence (P49023 1-557 isoform P49023-2): as the sequence (P49023 1-557 isoform P49023-2) above

Compound: COC(=O)c1cc2c3c(ccc2[nH]1)N(C(=O)c1cc2c4c(ccc2[nH]1)N(C(=O)c1cc2c5c(ccc2[nH]1)N(C(=O)CCCN(C)C)CC5)CC4)CC3 [Compound 11-A7B7C7, DMABA-CDPI3-OMe]
inhibition at 1 µM ([1]; 1 μM, read-out: Inhibition (%) of α4/Paxillin Binding by Deconvoluted Samples of 11-AxByCz): 76% | pIC50 [1]: 6.52 | inhibition at 1 µM [1, 4]: 78% | Binding of Paxillin to the α4 tail protein ([2]; GST-Paxillin 100 nM, immunoblot): markedly reduced | Quantification of bound Paxillin (scanning densitometry) ([2]; concentrations as low as 5 μM): near background levels | inhibition at 15 µM ([3]; Jurkat, highest possible dose, 15 μM, read-out: Maximum inhibition of migration): ~70% | pIC50 ([3]; Jurkat T cells, VCAM-1 coated membranes, SDF-1α, 4 hours, read-out: IC50 of inhibition of α4β1-mediated cell migration): ~5.00

Compound: COC(=O)c1cc2c3c(ccc2[nH]1)N(C(=O)OC(C)(C)C)CC3 [Compound 15, Boc-CDPI-OMe]
Inhibition of Pax/α4 binding (% at 1 μM) ([1]; 1 μM): 3%

Compound: COC(=O)c1cc2c3c(ccc2[nH]1)NCC3 [Compound 16, H-CDPI-OMe]
Inhibition of Pax/α4 binding (% at 1 μM) ([1]; 1 μM): 19%

Compound: O=C(O)c1cc2c3c(ccc2[nH]1)NCC3 [Compound 17, H-CDPI-OH]
Inhibition of Pax/α4 binding (% at 1 μM) ([1]; 1 μM): 11%

Compound: CC(C)(C)OC(=O)N1CCc2c1ccc1[nH]c(C(=O)O)cc21 [Compound 18, Boc-CDPI-OH]
Inhibition of Pax/α4 binding (% at 1 μM) ([1]; 1 μM): 6%

Compound: COC(=O)c1cc2c3c(ccc2[nH]1)N(C(=O)c1cc2c4c(ccc2[nH]1)N(C(=O)OC(C)(C)C)CC4)CC3 [Compound 20, Boc-CDPI2-OMe]
Inhibition of Pax/α4 binding (% at 1 μM) ([1]; 1 μM): 13%

Compound: COC(=O)c1cc2c3c(ccc2[nH]1)N(C(=O)c1cc2c4c(ccc2[nH]1)N(C(=O)c1cc2c5c(ccc2[nH]1)NCC5)CC4)CC3 [Compound 25, H-CDPI3-OMe]
pIC50 [1]: 6.52 | inhibition at 1 µM [1, 4]: 73%

Compound: O=C(O)c1cc2c3c(ccc2[nH]1)N(C(=O)c1cc2c4c(ccc2[nH]1)N(C(=O)c1cc2c5c(ccc2[nH]1)NCC5)CC4)CC3 [Compound 26, H-CDPI3-OH]
Paxillin/α4 binding inhibition, result in words [1]: only a slight reduction in potency | inhibition at 1 µM [1, 4]: 68% | IC50 ([1]; read-out: inhibition of Pax/α4 binding (IC50 in μM)): 0.5 µM

Compound: Boc-CDPI3-OMe [Compound 24]
Paxillin/α4 binding inhibition, result in words [1]: substantial loss of activity | Inhibition of Pax/α4 binding (% at 1 μM) ([1]; 1 μM): 25%

Other lines, results leading:

Inhibition of Pax/α4 binding (% at 1 μM) ([1]; 1 μM): 14%
Compound: COC(=O)c1cc2c3c(ccc2[nH]1)N(C(=O)c1cc2c4c(ccc2[nH]1)NCC4)CC3 [Compound 21, H-CDPI2-OMe]

Inhibition of Pax/α4 binding (% at 1 μM) ([1]; 1 μM): 27%
Compound: O=C(O)c1cc2c3c(ccc2[nH]1)N(C(=O)c1cc2c4c(ccc2[nH]1)NCC4)CC3 [Compound 23, H-CDPI2-OH]

Inhibition of Pax/α4 binding (% at 1 μM) ([1]; 1 μM): 36%
Compound: DMABA-CDPI2-OMe [Compound 22]

Inhibition of Pax/α4 binding (% at 1 μM) ([1]; 1 μM): −3%
Compound: DMABA-CDPI-OMe [Compound 19]
